Series [1] addresses T1, human 20S proteasome, ChT-L peptidase.
T1 construct: purchased Enzo LifeSciences
As to the kind of experiment: ChT-L peptidase activity of purified human 20S proteasome (Suc-LLVY-MCA). It counts as biochemical. The settings on record: latent human 20S proteasome. As to the method:
Human purified proteasome complexes were purchased from Enzo LifeSciences or Boston Biochemicals (19S complex). BODIPY-casein (Invitrogen/Molecular Probes) was used as a model protein substrate, with increasing fluorescence of BODIPY labeled peptide products of degradation monitored for up to 8 hours at 37° C. The peptidase activity of the enzyme was measured as arbitrary intensity units of the released fluorescent group 7-amino-4-methylcoumarin (AMC) from peptide substrates, as described. […] Proteasome substrates, rapamycin, its derivatives, and competing peptides were stocked in DMSO and diluted 100-fold in the reaction mixtures. The Rpt5 and PA200 C-terminal peptides were synthesized in the Departmental Peptide Synthesis Core using the standard SPPS chemistry. To activate the latent 20S proteasome, 0.005% (final concentration) of sodium dodecyl sulfate (SDS) was used. […] The fluorescence of products was monitored every 2 minutes with a Fluoroskan Ascent plate reader. Reaction rates were calculated from smoothed linear segment of kinetic curves using OriginPro 8.6 (OriginLabs, Northampton, Mass.). For the determination of an inhibition type, at least six distinct substrate concentrations and two inhibitor concentrations were used. The kinetic parameters of inhibition were analyzed in terms of the Michaelis-Menten formalism using the enzyme kinetic module of SigmaPlot v.12 (Systat Software, Inc, San Jose, Calif.) to perform the respective calculations. […]
The in vitro assay for testing the ChT-L peptidase activity of the purified human 20S proteasome was performed as described above.

Series [2] relates to HeLa.S3 cervical carcinoma cells. The experiment in a line: Live/dead cell count, HeLa.S3 cells. The settings on record: up to 500 nM, 48 hrs. It counts as cell-based, human. On the procedure:
(§1) Culture Collection; ATCC) were cultured according to ATCC specifications: HeLa.S3 cervical adenocarcinoma, MCF7 breast adenocarcinoma, MDA-MB-231 breast adenocarcinoma (representing triple negative breast cancer), and RPMI 8226 myeloma. The cells were grown in 24 or 12-well cell culture plates. When the cells reached about 60% confluency (surface-growing HeLa.S3,MCF7 and MDA-MB-231) or a density of about 7×10^5 (suspension-growing RPMI 8226), the inhibitors dissolved in DMSO or the solvent (DMSO) diluted in respective culture medium were added and the cells were further cultured for additional 48 hours. […] The final concentration of the solvent was 1% (vol/vol). The number of live and dead cells after the treatment was approximated with calcein AM and ethidium homodimer (LiveDead test, Invitrogen) according to manufacturer's protocol, or by a Trypan Blue exclusion assay. In short, the cells after the treatment were washed three times with PBS and overlaid (surface-growing) or mixed (suspension-growing) with 4 microM calcein AM and 2 microM ethidium homodimer in PBS. Fluorescence of calcein and DNA-bound ethidium homodimer was measured with Fluoroskan Ascent plate reader, at 485 nm (excitation)/538 nm (emission) and 530 nm/619 nm, respectively. The cell counts were approximated using standard curves of live and digitonin-killed cells prepared for each strain. Alternatively, after cell treatment the medium was removed, the surface growing cells were overlaid with Trypan Blue solution, and the colorless (live) and blue-colored (dead) cells were counted under the inverted microscope.

In another series the test system is RPMI 8226 myeloma cells. As to the kind of experiment: Live/dead cell count, RPMI 8226 myeloma cells. The class given is cell-based, human. The conditions noted are these: 48 hrs. On the procedure:
as §1

The subject of series [3] is T2, human 20S proteasome, PGPH peptidase.
T2 construct: purchased Enzo LifeSciences
The experiment in a line: PGPH peptidase activity of purified human 20S proteasome (CbzLLE-MCA). It counts as biochemical. As to the method: Human purified proteasome complexes were purchased from Enzo LifeSciences or Boston Biochemicals (19S complex). BODIPY-casein (Invitrogen/Molecular Probes) was used as a model protein substrate, with increasing fluorescence of BODIPY labeled peptide products of degradation monitored for up to 8 hours at 37° C. The peptidase activity of the enzyme was measured as arbitrary intensity units of the released fluorescent group 7-amino-4-methylcoumarin (AMC) from peptide substrates, as described. The common substrates specific for the three kinds of active sites: succinyl-LeuLeuValTyr-7-amido-4-methylcoumarin (Suc-LLVY-MCA; for the ChT-L activity; Bachem), butoxycarbonyl-LeuArgArg-MCA (BocLRR-MCA; for T-L; Bachem) and carbobenzoxy-LeuLeuGlu-MCA (CbzLLE-MCA; for PGPH; Enzo Life Sciences International, Inc.) were used at 100 μM final concentrations, unless stated otherwise (Gaczynska and Osmulski, 2005). Proteasome substrates, rapamycin, its derivatives, and competing peptides were stocked in DMSO and diluted 100-fold in the reaction mixtures. The Rpt5 and PA200 C-terminal peptides were synthesized in the Departmental Peptide Synthesis Core using the standard SPPS chemistry. To activate the latent 20S proteasome, 0.005% (final concentration) of sodium dodecyl sulfate (SDS) was used. The reactions were carried out in 96 well plates, with 2.3 nM proteasome and other components as indicated dissolved in 50 mM Tris-HCl buffer (pH 8.0) and incubated at 37° C. for up to 1 hour. The fluorescence of products was monitored every 2 minutes with a Fluoroskan Ascent plate reader. Reaction rates were calculated from smoothed linear segment of kinetic curves using OriginPro 8.6 (OriginLabs, Northampton, Mass.). For the determination of an inhibition type, at least six distinct substrate concentrations and two inhibitor concentrations were used. The kinetic parameters of inhibition were analyzed in terms of the Michaelis-Menten formalism using the enzyme kinetic module of SigmaPlot v.12 (Systat Software, Inc, San Jose, Calif.) to perform the respective calculations.
IC50 values (a drug concentration causing 50% inhibition of the indicated enzymatic activity) were calculated for ChT-L and PGPH peptidases. Kd (dissociation constant) and Bmax (maximal activation effect achieved; in % above the control activity) values were calculated for the T-L peptidase. Mean±SD from n=2 or 3 experiments, or data from representative experiments set in duplicates or triplicates, are presented in the table. All three peptidase activities changed by no more than ±20%, without a concentration-dependent trend, upon treatment with up to 10 μM of rapamycin unrelated mTOR inhibitors PI-103 or NVP-BEZ235, in two independent experiments.

In series [4] the test system is MCF7 breast carcinoma cells. As to the kind of experiment: Live/dead cell count, MCF7 cells. It counts as cell-based, human. The settings on record: seco-rapamycin alone, 48 hrs, 100% = total cell count in control. On the procedure: as §1, with “In short, the cells after the treatment were washed three times with PBS and overlaid (surface-growing) or mixed (suspension-growing) with 4 microM calcein AM and 2 microM ethidium homodimer in PBS.” left out, “The cell counts were approximated using standard curves of live and digitonin-killed cells prepared for each strain.” left out

In a further series the target is mTOR (Homo sapiens, UniProt P42345+P62942). The conditions noted are these: cited from earlier work.

A value given as a limit tells only on which side of the number the result lay.

The term IC50 denotes the concentration that gives 50% inhibition. Higher therefore signals lower potency. With `CO[C@@H](C[C@@H]1CC[C@@H](C)[C@](O)(C(=O)C(=O)N2CCCC[C@H]2C(=O)[O-])O1)/C(C)=C/C=C/C=C/[C@@H](C)C[C@@H](C)C(=O)[C@H](OC)[C@H](O)/C(C)=C/[C@@H](C)C(=O)/C=C/[C@H](C)C[C@@H]1CC[C@@H](O)[C@H](OC)C1.[Na+]` [seco-rapamycin], the figures for the IC50 in series [1] and in series [3] (latent human 20S proteasome) were above 20 µM and 6.45 ± 0.78 µM, respectively. In series [2], the cytotoxicity entry is given as “did not reveal cytotoxicity”. Also, the “drop in the live cell count” value in the series with RPMI 8226 myeloma cells (100 nM) was 50%. Also, in the series with RPMI 8226 myeloma cells (200 nM), the cells alive entry is “only one-third of the control cells alive”. The “inhibition of post-acidic (PGPH) cleavages” value in series [3] (5 μM) is reported as around 50%. In series [4], the dead cells count result was “about 60%”. On mTOR, the “effect on mTOR function” value is given as “not to affect the mTOR function”.

The values are drawn from patent US9918968B2, “Rapamycin analogs targeting proteasome function in the treatment of cancer” (THE BOARD OF REGENTS OF THE UNIVERSITY OF TEXAS SYSTEM, priority 2013, dated 2018).
